In ChEMBL document CHEMBL3585316, “Discovery, bioactivity and docking simulation of Vorinostat analogues containing 1,2,4-oxadiazole moiety as potent histone deacetylase inhibitors and antitumor agents” (Bioorg Med Chem, 2015):
pIC50: −log10 of the molar value.

Legend:
NCI-H661 = test: Antiproliferative activity against human NCI-H661 cells incubated for 72 hrs by MTT assay; assay type: functional, cell-based; settings: NCI-H661, 72 h
U-937 = test: Antiproliferative activity against human U937 cells incubated for 72 hrs by MTT assay; assay type: functional, cell-based; settings: U-937, 72 h
Histone deacetylase 1 = Histone deacetylase 1 (Homo sapiens, UniProt Q13547); test: Inhibition of recombinant HDAC1 (unknown origin) incubated for 10 mins using Boc-Lys(acetyl)-AMC fluorogenic substrate by homogeneous fluorescence release assay
Histone deacetylase 1, sequence (Q13547 whole entry): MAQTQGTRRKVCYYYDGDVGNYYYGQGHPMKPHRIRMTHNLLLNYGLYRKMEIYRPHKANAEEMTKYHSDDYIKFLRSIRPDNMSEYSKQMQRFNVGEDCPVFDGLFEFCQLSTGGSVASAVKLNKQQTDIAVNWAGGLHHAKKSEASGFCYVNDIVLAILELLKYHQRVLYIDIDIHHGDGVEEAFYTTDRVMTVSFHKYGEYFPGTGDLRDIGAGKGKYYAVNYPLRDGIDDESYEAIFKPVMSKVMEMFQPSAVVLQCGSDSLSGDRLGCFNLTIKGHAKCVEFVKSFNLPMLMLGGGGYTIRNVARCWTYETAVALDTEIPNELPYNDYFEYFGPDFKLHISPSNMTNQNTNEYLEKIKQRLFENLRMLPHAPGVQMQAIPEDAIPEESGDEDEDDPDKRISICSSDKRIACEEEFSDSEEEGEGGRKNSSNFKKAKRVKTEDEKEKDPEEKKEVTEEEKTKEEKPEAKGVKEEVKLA

Histone deacetylase 2 = Histone deacetylase 2 (Homo sapiens, UniProt Q92769); test: Inhibition of recombinant HDAC2 (unknown origin) incubated for 10 mins using Boc-Lys(acetyl)-AMC fluorogenic substrate by homogeneous fluorescence release assay
Histone deacetylase 2, sequence (Q92769 whole entry): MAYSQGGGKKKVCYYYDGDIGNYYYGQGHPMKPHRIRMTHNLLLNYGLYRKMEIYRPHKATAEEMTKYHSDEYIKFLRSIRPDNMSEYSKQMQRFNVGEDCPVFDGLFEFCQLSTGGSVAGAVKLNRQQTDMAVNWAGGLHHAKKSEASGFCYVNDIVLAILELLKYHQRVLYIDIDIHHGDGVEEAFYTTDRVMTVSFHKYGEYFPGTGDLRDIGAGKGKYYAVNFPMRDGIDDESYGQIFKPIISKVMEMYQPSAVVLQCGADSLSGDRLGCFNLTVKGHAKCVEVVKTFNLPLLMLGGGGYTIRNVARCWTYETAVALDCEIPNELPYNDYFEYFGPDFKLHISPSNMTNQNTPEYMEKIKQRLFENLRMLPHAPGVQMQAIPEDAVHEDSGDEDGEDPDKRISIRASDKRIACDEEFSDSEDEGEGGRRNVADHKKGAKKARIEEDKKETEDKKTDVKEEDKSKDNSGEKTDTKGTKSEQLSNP

Histone deacetylase 8 = molecular target: T1, Histone deacetylase 8 (Homo sapiens, UniProt Q9BY41); test: Inhibition of recombinant HDAC8 (unknown origin) incubated for 10 mins using Boc-Lys(acetyl)-AMC fluorogenic substrate by homogeneous fluorescence release assay
T1 sequence (Q9BY41 whole entry): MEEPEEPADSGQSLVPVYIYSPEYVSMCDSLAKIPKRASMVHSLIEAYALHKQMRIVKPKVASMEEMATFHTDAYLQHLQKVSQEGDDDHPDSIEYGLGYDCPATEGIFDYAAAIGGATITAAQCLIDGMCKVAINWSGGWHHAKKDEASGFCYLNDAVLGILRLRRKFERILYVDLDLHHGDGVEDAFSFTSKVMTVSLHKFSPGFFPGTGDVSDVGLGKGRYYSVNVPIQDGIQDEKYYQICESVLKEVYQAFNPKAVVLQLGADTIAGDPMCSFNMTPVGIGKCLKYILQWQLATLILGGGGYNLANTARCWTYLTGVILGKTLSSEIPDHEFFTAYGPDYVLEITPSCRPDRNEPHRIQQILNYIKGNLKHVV

A549 = test: cells; settings: Homo sapiens, A549, 72 h
Description: Antiproliferative activity against human A549 cells incubated for 72 hrs by MTT assay

Histone deacetylase [1] = test: Inhibition of histone deacetylase (unknown origin) by cell-free assay; assay type: protein assay, Homo sapiens
Histone deacetylase [2] = test: Inhibition of histone deacetylase (unknown origin) by intracellular cell based assay; parameters: species or system Homo sapiens

SMILES	pIC50 (NCI-H661)	pIC50 (U-937)	pIC50 (Histone deacetylase 1)	pIC50 (Histone deacetylase 2)	pIC50 (Histone deacetylase 8)	pIC50 (A549)	IC50 (Histone deacetylase [1]) [µM]	IC50 (Histone deacetylase [2]) [µM]
O=C(CCCCCCc1nc(-c2ccccc2)no1)NO	4.76	5.90	6.42	5.93	5.69	5.15	–	–
Cc1ccc(-c2noc(CCCCCCC(=O)Nc3ccccc3N)n2)cc1	6.39	6.34	6.85	6.17	5.08	5.04	–	–
Nc1ccccc1NC(=O)CCCCCCc1nc(-c2cccc([N+](=O)[O-])c2)no1	5.14	5.67	6.09	5.28	< 5.00	4.70	–	–
O=C(CCCCCCc1nc(-c2cccc([N+](=O)[O-])c2)no1)C(F)(F)F	5.19	6.25	5.40	6.04	6.08	5.02	–	–
O=C(CCCCCCc1nc(-c2cccnc2)no1)NO	5.22	6.46	7.10	6.41	5.74	5.27	–	–
O=C(CCCCCCc1nc(-c2ccccc2)no1)C(F)(F)F	6.28	6.39	5.27	5.98	6.12	5.11	–	–
Nc1ccccc1NC(=O)CCCCCCc1nc(-c2cccs2)no1	5.21	5.80	6.12	5.54	< 5.00	4.54	–	–
O=C(CCCCCCc1nc(-c2ccc([N+](=O)[O-])cc2)no1)NO	5.51	6.54	7.15	6.64	5.59	5.27	–	–
O=C(CCCCCCc1nc(-c2ccc(C(F)(F)F)cc2)no1)NO	4.82	5.54	5.72	5.10	< 5.00	4.85	–	–
O=C(CCCCCCc1nc(-c2ccc(Cl)cc2)no1)NO	4.76	6.01	6.17	5.28	< 5.00	4.93	–	–
COc1ccc(-c2noc(CCCCCCC(=O)NO)n2)cc1	4.69	5.44	5.66	< 5.00	< 5.00	4.87	–	–
COc1ccc(-c2noc(CCCCCCC(=O)Nc3ccccc3N)n2)cc1	5.10	5.57	6.04	5.41	< 5.00	4.71	–	–
Nc1ccccc1NC(=O)CCCCCCc1nc(-c2ccc(F)cc2)no1	5.02	5.51	6.06	5.59	< 5.00	4.51	–	–
Nc1ccccc1NC(=O)CCCCCCc1nc(-c2ccc([N+](=O)[O-])cc2)no1	< 4.00	4.99	5.06	< 5.00	< 5.00	< 4.00	–	–
O=C(CCCCCCc1nc(-c2cccs2)no1)NO	5.02	6.49	6.92	6.29	5.72	5.36	–	–
O=C(CCCCCCc1nc(-c2ccc(Cl)cc2)no1)C(F)(F)F	4.92	5.33	< 5.00	5.07	5.68	4.73	–	–
COc1ccc(-c2noc(CCCCCCC(=O)C(F)(F)F)n2)cc1	5.30	5.93	5.02	5.34	5.73	4.45	–	–

SMILES	pIC50 (NCI-H661)	pIC50 (U-937)	pIC50 (Histone deacetylase 1)	pIC50 (Histone deacetylase 2)	pIC50 (Histone deacetylase 8)	pIC50 (A549)	IC50 (Histone deacetylase [1]) [µM]	IC50 (Histone deacetylase [2]) [µM]
Cc1ccc(-c2noc(CCCCCCC(=O)C(F)(F)F)n2)cc1	4.73	5.43	< 5.00	5.14	5.50	< 4.00	–	–
Nc1ccccc1NC(=O)CCCCCCc1nc(-c2ccc(Cl)cc2)no1	4.95	5.36	5.81	5.20	< 5.00	4.86	–	–
O=C(CCCCCCc1nc(-c2ccccc2Cl)no1)NO	4.99	6.12	6.72	5.90	5.44	5.05	–	–
Nc1ccccc1NC(=O)CCCCCCc1nc(-c2ccccc2Cl)no1	5.08	5.16	5.38	< 5.00	< 5.00	< 4.00	–	–
O=C(CCCCCCc1nc(-c2ccc(F)cc2)no1)NO	4.71	5.71	5.94	5.20	5.06	5.24	–	–
O=C(CCCCCCc1nc(-c2cccc([N+](=O)[O-])c2)no1)NO	4.79	5.94	6.46	5.81	5.62	4.96	–	–
Nc1ccccc1NC(=O)CCCCCCc1nc(-c2ccccc2)no1	6.02	6.14	6.68	6.14	< 5.00	4.62	–	–
Nc1ccccc1NC(=O)CCCCCCc1nc(-c2cccnc2)no1	4.81	5.68	5.98	5.50	< 5.00	< 4.00	–	–
O=C(CCCCCCc1nc(-c2ccc(C(F)(F)F)cc2)no1)C(F)(F)F	5.19	5.71	5.08	5.55	5.99	4.54	–	–
O=C(CCCCCCc1nc(-c2ccc(F)cc2)no1)C(F)(F)F	4.90	5.63	< 5.00	< 5.00	5.12	< 4.00	–	–
O=C(CCCCCc1nc2cc3ccccc3cc2[nH]1)C(F)(F)F	–	–	–	–	–	–	0.6	1.8
O=C(CCCCCCc1nc(-c2ccc([N+](=O)[O-])cc2)no1)C(F)(F)F	4.76	5.43	< 5.00	5.09	5.50	< 4.00	–	–
Nc1ccccc1NC(=O)CCCCCCc1nc(-c2ccc(C(F)(F)F)cc2)no1	4.53	5.28	5.52	< 5.00	< 5.00	< 4.00	–	–
O=C(CCCCCCc1nc(-c2cccs2)no1)C(F)(F)F	5.12	5.89	5.29	5.79	6.02	4.93	–	–
O=C(CCCCCCc1nc(-c2ccccc2Cl)no1)C(F)(F)F	5.90	6.04	5.12	5.80	6.15	5.21	–	–
Nc1ccccc1NC(=O)c1ccc(CNC(=O)OCc2cccnc2)cc1 [ENTINOSTAT]	–	6.26	–	–	–	–	–	–
Cc1ccc(-c2noc(CCCCCCC(=O)NO)n2)cc1	4.80	5.87	6.31	5.56	5.27	5.24	–	–
